Experimental data reported in US20100029604A1, “ANTIBACTERIAL COMBINATION AND ITS USE” (priority 2007, published 2010).
Values after ≈ are worked out from the molar mass of the structure shown. Read-outs that look alike come from different tables or passages of the source.

What was measured:
[1] = test system: E. coli TEM-1; assay type: cell-based; settings: TEM-1, class A, inhibitor constant 4 μg/mL
[2] = test system: E. coli TEM-2; assay type: cell-based; settings: TEM-2, class A, inhibitor constant 4 μg/mL
[3] = test system: K. pneumoniae SHV-18; assay: Synergy MIC, inhibitor at 4 μg/mL (Example 4); assay type: cell-based; settings: SHV-18, class A, inhibitor constant 4 μg/mL
[4] = test system: E. coli SHV-3; assay: Synergy MIC, inhibitor at 4 μg/mL (Example 4); assay type: cell-based; settings: SHV-3, class A, inhibitor constant 4 μg/mL
[5] = test system: C. freundii AmpC; assay: Synergy MIC, inhibitor at 4 μg/mL (Example 4); assay type: cell-based, Citrobacter freundii; settings: class C, inhibitor constant 4 μg/mL
Procedure: (§1) The in vitro activities of the antibiotics were determined by the broth microdilution method and agar dilution technique as recommended by CLSI guidelines. The MIC experiments were performed in duplicate in 96-well microtiter plates using MHB. Serial twofold dilutions of each antibiotic either alone or in combination with a constant amount (4 μg/mL) of a β-lactamase inhibitor were prepared in MHBII broth. A sterile pipette tip was used to mix the contents of each well (one tip was used going from the low to the high concentration in the same column). The bacterial suspension with final inoculum 10^5 CFU/mL was transferred to the test medium containing the antibacterial substances by a multipoint inoculator (Dynatech, Chantilly, Va., USA). The plates were then incubated at 35° C. for 24 h.
(§2) Following procedures identical to those described in Example 3, representative compound of Formula (I) was tested for its ability to enhance antibiotic efficacy against Class C β-lactamase positive bacterial strains that are highly resistant to β-lactam antibiotics. Class C enzymes included AmpC β-lactamases of Enterobacter Cloacae and Citrobacter freundii.

[6] = test system: E. cloacae AmpC; assay: Synergy MIC, inhibitor at 4 μg/mL (Example 4); assay type: cell-based, Enterobacter Cloacae; settings: class C, inhibitor constant 4 μg/mL
Procedure: as §1, §2

[7] = test system: Pseudomonas aeruginosa OXA-10; assay: MIC, characterised β-lactamase producing strain (Example 5, Tables 5-7); assay type: cell-based
Procedure: The MIC experiments were performed in duplicate in 96-well microtiter plates using CAMHB. […] The bacterial suspension with final inoculum 10^5 CFU/mL was transferred to the test medium containing the antibacterial substances. In each well of a 96-well microtiter plate was combined 50 μL of bacterial inoculum, 50 μL of antibiotic dilutions (or media for determination of the MIC of the antibiotic in the absence of test compound). Each plate included 4 wells with no bacterial inoculum (negative control) and 4 wells with no test compound and no antibiotic (positive control). The plates were incubated at 35° C. for 24 h. Purity check and colony counts on each inoculum suspension was performed to ensure that the final inoculum concentration routinely obtained closely approximates 5×10^5 CFU/mL. In addition the assay is routinely monitored by testing standard antibiotics and ensuring that MIC values are within the recommended ranges for the respective strains.
(§3) This test permits comparisons to be made between bacterial growth in the presence of antibiotic alone and bacterial growth in the presence of both an antibiotic and a novel (test) compound.

[8] = test system: Escherichia coli HMS-1; assay: as above; assay type: cell-based
Procedure: (§4) The MIC experiments were performed in duplicate in 96-well microtiter plates using CAMHB. Serial twofold dilutions of each antibiotic either alone or in combination with constant concentration ratio of a β-lactamase inhibitor (2:1) were prepared in CAMHB. The bacterial suspension with final inoculum 10^5 CFU/mL was transferred to the test medium containing the antibacterial substances. In each well of a 96-well microtiter plate was combined 50 μL of bacterial inoculum, 50 μL of antibiotic dilutions (or media for determination of the MIC of the antibiotic in the absence of test compound). Each plate included 4 wells with no bacterial inoculum (negative control) and 4 wells with no test compound and no antibiotic (positive control). The plates were incubated at 35° C. for 24 h. Purity check and colony counts on each inoculum suspension was performed to ensure that the final inoculum concentration routinely obtained closely approximates 5×10^5 CFU/mL. In addition the assay is routinely monitored by testing standard antibiotics and ensuring that MIC values are within the recommended ranges for the respective strains.
as §3

[9] = test system: Escherichia coli OXA-2; assay: as above; assay type: cell-based
Procedure: as §4, §3

[10] = test system: Escherichia coli OXA-3; assay: as above; assay type: cell-based
Procedure: as §4, §3

[11] = test system: Escherichia coli OXA-5; assay: as above; assay type: cell-based
Procedure: as §4, §3

[12] = test system: Escherichia coli SHV-2A; assay: as above; assay type: cell-based
Procedure: as §4, §3

[13] = test system: Escherichia coli SHV-3; assay: as above; assay type: cell-based
Procedure: as §4, §3

[14] = test system: Escherichia coli TEM-2; assay: as above; assay type: cell-based
Procedure: as §4, §3

[15] = test system: Escherichia coli TEM-31; assay: as above; assay type: cell-based
Procedure: as §4, §3

[16] = test system: Escherichia coli TEM-35; assay: as above; assay type: cell-based
Procedure: as §4, §3

[17] = test system: Escherichia coli TEM-3; assay: as above; assay type: cell-based
Procedure: as §4, §3

[18] = test system: Klebsiella oxytoca K1 highperproduced; assay: as above; assay type: cell-based
Procedure: as §4, §3

[19] = test system: Pseudomonas aeruginosa CARB-3; assay: as above; assay type: cell-based
Procedure: as §4, §3

[20] = test system: Escherichia coli TEM-1; assay type: cell-based
Procedure: as §4, §3

CC(C)(O/N=C(\C(=O)N[C@@H]1C(=O)N2C(C(=O)[O-])=C(C[n+]3ccccc3)CS[C@H]12)c1csc(N)n1)C(=O)O [ceftazidime]
MIC [1]: 3.2 µg/mL (≈ 5.85 µM) | MIC [2]: 1.6 µg/mL (≈ 2.93 µM) | MIC [3]: 25.6 µg/mL | MIC [4]: 0.8 µg/mL | MIC [5]: > 25.6 µg/mL | MIC ([6]; first listed): > 25.6 µg/mL | MIC ([6]; second listed): > 25.6 µg/mL | MIC ([6]; third listed): > 25.6 µg/mL | MIC ([7]; Table 7, Pseudomonas aeruginosa OXA-10, combination at constant concentration ratio (2:1)): 4 µg/mL | MIC ([8]; Table 7, Escherichia coli HMS-1, combination at constant concentration ratio (2:1)): 0.25 µg/mL | MIC ([9]; Table 7, Escherichia coli OXA-2, combination at constant concentration ratio (2:1)): 1 µg/mL | MIC ([10]; Table 7, Escherichia coli OXA-3, combination at constant concentration ratio (2:1)): 0.5 µg/mL | MIC ([11]; Table 7, Escherichia coli OXA-5, combination at constant concentration ratio (2:1)): 0.5 µg/mL | MIC ([12]; Table 7, combination at constant concentration ratio (2:1)): 4 µg/mL | MIC ([13]; Table 7, Escherichia coli SHV-3, combination at constant concentration ratio (2:1)): 2 µg/mL | MIC ([14]; Table 7, Escherichia coli TEM-2, combination at constant concentration ratio (2:1)): 0.5 µg/mL | MIC ([15]; Table 7, Escherichia coli TEM-31, combination at constant concentration ratio (2:1)): 0.25 µg/mL | MIC ([16]; Table 7, Escherichia coli TEM-35, combination at constant concentration ratio (2:1)): 0.25 µg/mL | MIC ([17]; Table 7, Escherichia coli TEM-3, combination at constant concentration ratio (2:1)): 32 µg/mL | MIC ([18]; Table 7, Klebsiella oxytoca K1 hyperproduced, first listed strain, combination at constant concentration ratio (2:1)): 1 µg/mL | MIC ([18]; Table 7, Klebsiella oxytoca K1 hyperproduced, second listed strain, combination at constant concentration ratio (2:1)): 0.5 µg/mL | MIC ([19]; Table 7, Pseudomonas aeruginosa CARB-3, combination at constant concentration ratio (2:1)): 2 µg/mL | MIC ([20]; Table 7, Escherichia coli TEM-1, combination at constant concentration ratio (2:1)): 0.25 µg/mL

CO/N=C(\C(=O)N[C@@H]1C(=O)N2C(C(=O)[O-])=C(C[N+]3(C)CCCC3)CS[C@H]12)c1csc(N)n1 [cefepime]
MIC [1]: 12.8 µg/mL (≈ 26.6 µM) | MIC [2]: ≦0.025 | MIC [3]: 0.8 µg/mL | MIC [4]: 0.4 µg/mL | MIC [5]: 0.8 µg/mL | MIC ([6]; first listed): 0.8 µg/mL | MIC ([6]; second listed): 1.6 µg/mL | MIC ([6]; third listed): 1.6 µg/mL | MIC ([7]; Pseudomonas aeruginosa OXA-10, functional group 2d, LK-157 in combination constant 4 μg/mL): 64 µg/mL | MIC ([8]; Escherichia coli HMS-1, functional group 2b, LK-157 in combination constant 4 μg/mL): 0.125 µg/mL | MIC ([9]; Escherichia coli OXA-2, functional group 2d, LK-157 in combination constant 4 μg/mL): 0.125 µg/mL | MIC ([10]; Escherichia coli OXA-3, functional group 2d, LK-157 in combination constant 4 μg/mL): 0.125 µg/mL | MIC ([11]; Escherichia coli OXA-5, functional group 2d, LK-157 in combination constant 4 μg/mL): 0.125 µg/mL | MIC ([12]; functional group 2be, LK-157 in combination constant 4 μg/mL): 16 µg/mL | MIC ([13]; Escherichia coli SHV-3, functional group 2be, LK-157 in combination constant 4 μg/mL): 4 µg/mL | MIC ([14]; Escherichia coli TEM-2, functional group 2b, LK-157 in combination constant 4 μg/mL): 0.25 µg/mL | MIC ([15]; Escherichia coli TEM-31, functional group 2br, LK-157 in combination constant 4 μg/mL): 0.125 µg/mL | MIC ([16]; Escherichia coli TEM-35, functional group 2br, LK-157 in combination constant 4 μg/mL): 0.125 µg/mL | MIC ([17]; Escherichia coli TEM-3, functional group 2be, LK-157 in combination constant 4 μg/mL): 4 µg/mL | MIC ([18]; Klebsiella oxytoca K1 highperproduced, functional group 2be, first listed (r47), LK-157 in combination constant 4 μg/mL): 1 µg/mL | MIC ([18]; Klebsiella oxytoca K1 highperproduced, functional group 2be, second listed (r48), LK-157 in combination constant 4 μg/mL): 4 µg/mL | MIC ([19]; Pseudomonas aeruginosa CARB-3, functional group 2c, LK-157 in combination constant 4 μg/mL): 16 µg/mL | MIC ([20]; Escherichia coli TEM-1, functional group 2b, LK-157 in combination constant 4 μg/mL): 0.125 µg/mL
